From paper PMC11150261, “Evaluation of antibacterial, cytotoxicity, and apoptosis activity of novel chromene-sulfonamide hybrids synthesized under solvent-free conditions and 3D-QSAR modeling studies” (Scientific Reports, 2024)
≈ marks a conversion by molar mass, not a printed value. Entries after “also recorded” stand apart in the source; their conditions may differ. Like-named read-outs stand apart in the source and are kept apart here.

Legend:
[1] = tested on: S. aureus ATCC 25923; assay: Broth microdilution MIC; assay type: cell-based; details: for MIC effect on S. aureus: SAR effect diagram, Table 6; for MIC: Staphylococcus aureus, ATCC25923
Method: (§1) A broth microdilution method was utilized to explore the minimum inhibitory concentrations (MIC) of all the newly synthesized compounds against E. coli ATCC 25922 and S. aureus ATCC 25923. Test compounds were prepared using dimethyl sulfoxide (DMSO) as a stock solution, followed by serial dilutions in Mueller Hinton broth containing up to one percent DMSO. At the end, a diluted bacterial suspension from a 0.5 McFarland tube was added to all the wells (the final volume of each well was 1 × 10^5 CFU/ml). In the growth control, a culture medium with bacteria was used as a positive control, and a culture medium without bacteria was used as a negative control (sterility control). The MIC was the lowest concentration of the synthesized compounds that produced no growth on the plate. Sulfisoxazole, functioning as a sulfonamide antibiotic, and gentamicin were employed in a comparative analysis of antibacterial activity, cytotoxicity, and apoptosis assessment.

[2] = tested on: E. coli ATCC 25922; assay: Broth microdilution MIC; assay type: cell-based; details: for MIC: Escherichia coli, ATCC25922; for MIC effect on E. coli: SAR effect diagram
Method: as §1

[3] = Apoptosis Annexin V binding assay (flow cytometry); assay type: cell-based; details: mouse, L929 fibroblast cells; L929, IC50 concentration, Annexin V-FITC/PI
Method: (§2) To detect apoptosis, the Annexin V binding assay was used. The assay was performed according to the manufacturer's instructions using a FITC Annexin V Apoptosis Detection Kit with PI from BioLegend® (San Diego, California). To conduct this test, the fibroblast L929 cell line (Pasteur Institute, Tehran, Iran) was treated with various concentrations of the newly synthesized compounds and then incubated for 24 h at 37 °C with 5% CO2. Subsequently, each well's supernatant was removed and the cells were washed with PBS. Each well was then filled with 500 μl of Annexin-binding buffer (10 mM HEPES, 140 mM NaCl, and 2.5 mM CaCl2, pH 7.4) and 10 μl of Annexin V and PI. For 15 min, the plates were incubated at room temperature and kept away from light. After incubation, using a BD FACSCalibur flow cytometer (Biosciences, San Jose, CA, USA), the cells were examined after incubation. FlowJo software (version 10.5.3, TreeStar Incorporated, Ashland, OR) was used to analyze flow cytometry data.

[4] = tested on: fibroblast L929 cell line; assay: Apoptosis Annexin V binding assay (flow cytometry); assay type: cell-based; details: for induced cell death: L929 cells, 24 h, IC50 concentration of each compound; for apoptotic effects: at the IC50 concentration
Method: as §2

[5] = tested on: fibroblast L929 cells; assay: Cytotoxicity assay by MTT; assay type: cell-based; details: Mus musculus, fibroblast L929 cell line, 24 h
Method: MTT was applied to evaluate the cytotoxicity of the newly synthesized compounds against fibroblast L929 cells (Pasteur Institute, Tehran, Iran). Briefly, 100 μl of cell suspension (1 × 10^4 cells/well) in RPMI 1640 medium, as seeded in 96-well microplates and incubated for 24 h (37 °C, 5% CO2 air humidified). After removing the old media, 100 µl of each of the newly synthesized compounds was added to each well at different concentrations. The plates were incubated for another 24 h in the same condition. To determine the positive and negative controls, doxorubicin and DMSO were used. Cell survival was determined by adding 10 µL of an MTT solution (5 mg/ml in PBS) to each well and incubating at 37 °C for 3 h. The previous MTT-containing media was then removed, and 100 µL DMSO was pipetted into each well to dissolve the produced formazan crystals. Using an ELISA plate reader (Startfix-2100, Awareness, USA), absorbance was measured at 570 nm. By plotting the percentage of cytotoxicity versus concentration of the produced compounds, the concentrations that inhibit half of the cell population (IC50) were determined. A mean and standard deviation (SD) are used to represent the results. The percentage cell viability was calculated using the formula: Viability=Absorbance \, of \, treated \, cells-background \, absorbance(b)/Absorbance \, of \, untreated \, cells(c)-background \, absorbance(b)×100 where (b) = blank, and (c) = control.

[6] = Table 7, read-out: MIC for S. aureus
[7] = microdilution method, read-out: Minimum inhibitory concentrations (MIC) S. aureus ATCC 25923
[8] = Table 6, antibacterial activity against E. coli, read-out: MIC for E. coli ATCC 25922
[9] = microdilution method, read-out: Minimum inhibitory concentrations (MIC) E. coli ATCC 25922

| SMILES | MIC effect on S. aureus [1] | MIC [1, 6] [µg/mL] | MIC [1, 7] [µg/mL] | MIC [2, 8] [µg/mL] | MIC [2, 9] [µg/mL] | MIC effect on E. coli [2] | viability at 24 h [3] [%] | induced cell death [4] [%] | IC50 [5] [µg/mL] | melting point [°C] | antibacterial effect on S. aureus (MIC results) [1] | antibacterial effect on E. coli (MIC results) [2] | apoptotic effects [4] |
| --- | --- | --- | --- | --- | --- | --- | --- | --- | --- | --- | --- | --- | --- |
| COc1ccc(C2C(C#N)=C(N)Oc3cc(NS(=O)(=O)c4ccc(C)cc4)ccc32)cc1 (centres unmarked) [1b, N-[2-amino-3-cyano-4-(4-methoxy-phenyl)-4H-chromene-7-yl]-4-methyl-benzene sulfonamide] | Negative | > 512 | > 512 | 256 (≈ 572 µM) | 256 (≈ 572 µM) | Neutral | 55 | 42.29 | 139 (≈ 311 µM) |  |  |  |  |
| COc1ccccc1C1C(C#N)=C(N)Oc2cc(NS(=O)(=O)c3ccc(C)cc3)ccc21 (centres unmarked) [2b, N-[2-amino-3-cyano-4-(2-methoxy-phenyl)-4H-chromene-7-yl]-4-methyl-benzene sulfonamide] | Negative | > 512 | > 512 | 128 (≈ 286 µM) | 128 (≈ 286 µM) | Positive |  |  | 229 (≈ 512 µM) | 180 to 183 |  |  |  |
| COc1ccc(C2C(C#N)=C(N)Oc3cc(NS(=O)(=O)c4ccc(C)cc4)ccc32)cc1OC (centres unmarked) [3b, N-[2-amino-3-cyano-4-(3,4-dimethoxy-phenyl)-4H-chromene-7-yl]-4-methyl-benzene sulfonamide] | Negative | > 512 | > 512 | > 512 | > 512 | neutral or negative; also recorded: Negative |  |  | 219 (≈ 459 µM) | 127 to 130 |  |  |  |
| Cc1ccc(S(=O)(=O)Nc2ccc3c(c2)OC(N)=C(C#N)C3c2ccc(Cl)cc2)cc1 (centres unmarked) [4b, N-[2-amino-3-cyano-4-(4-chloro-phenyl)-4H-chromene-7-yl]-4-methyl-benzene sulfonamide] | Neutral | 256 (≈ 566 µM) | 256 (≈ 566 µM) | 128 (≈ 283 µM) | 128 (≈ 283 µM) | Positive | 77.4 | 22.2 | 152 (≈ 336 µM) |  |  |  |  |
| CC(=O)Nc1ccc(S(=O)(=O)Nc2ccc3c(c2)OC(N)=C(C#N)C3c2ccccc2)cc1 (centres unmarked) [5b, N-[4-(2-amino-3-cyano-4-phenyl-4H-chromen-7-ylsulfamoyl)-phenyl]-acetamide] | Positive | 128 (≈ 278 µM) | 128 (≈ 278 µM) | 128 (≈ 278 µM) | 128 (≈ 278 µM) | Positive |  |  | 173 (≈ 376 µM) | 240 to 243 |  |  |  |
| CC(=O)Nc1ccc(S(=O)(=O)Nc2ccc3c(c2)OC(N)=C(C#N)C3c2cccc(Oc3ccccc3)c2)cc1 (centres unmarked) [6b, N-[4-[2-amino-3-cyano-4-(3-phenoxy-phenyl)-4H-chromene-7-ylsulfamoyl]-phenyl}-acetamide] | Neutral | 256 (≈ 463 µM) | 256 (≈ 463 µM) | 64 (≈ 116 µM) | 64 (≈ 116 µM) | Positive | 46 | 53.85 | 114 (≈ 206 µM) |  | robust antibacterial effect | robust antibacterial effect |  |
| CC(=O)Nc1ccc(S(=O)(=O)Nc2ccc3c(c2)OC(N)=C(C#N)C3c2ccc(F)cc2)cc1 (centres unmarked) [7b, N-[4-[2-amino-3-cyano-4-(4-fluoro-phenyl)-4H-chromene-7-ylsulfamoyl]-phenyl}-acetamide] | Positive | 128 (≈ 267 µM) | 128 (≈ 267 µM) | 128 (≈ 267 µM) | 128 (≈ 267 µM) | Positive |  |  | 182 (≈ 380 µM) | 230 to 233 |  |  |  |
| CC(=O)Nc1ccc(S(=O)(=O)Nc2ccc3c(c2)OC(N)=C(C#N)C3c2ccc(Cl)cc2)cc1 (centres unmarked) [8b, N-[4-[2-amino-3-cyano-4-(4-chloro-phenyl)-4H-chromene-7-ylsulfamoyl]-phenyl}-acetamide] | Positive | 32 (≈ 64.7 µM) | 32 (≈ 64.7 µM) | 64 (≈ 129 µM) | 64 (≈ 129 µM) | Positive | 43.2 | 56.8 | 90 (≈ 182 µM) |  | robust antibacterial effect | robust antibacterial effect |  |
| COc1ccc(C2C(C#N)=C(N)Oc3cc(NS(=O)(=O)c4ccc(NC(C)=O)cc4)ccc32)cc1OC (centres unmarked) [9b, N-[4-[2-amino-3-cyano-4-(3,4-dimethoxy-phenyl)-4H-chromene-7-ylsulfamoyl]-phenyl}-acetamide] | Negative | > 512 | > 512 | 256 (≈ 492 µM) | 256 (≈ 492 µM) | neutral or negative; also recorded: Neutral |  |  | 234 (≈ 450 µM) | 235 to 238 |  |  |  |
| CSc1ccc(C2C(C#N)=C(N)Oc3cc(NS(=O)(=O)c4ccccc4)ccc32)cc1 (centres unmarked) [10b, N-(2-amino-3-cyano-4-(4-(methylthio)phenyl)-4H-chromen-7-yl)benzenesulfonamide] | Negative | > 512 | > 512 | 256 (≈ 569 µM) | 256 (≈ 569 µM) | neutral or negative; also recorded: Neutral |  |  | 247 (≈ 549 µM) | 135 to 138 |  |  |  |
| N#CC1=C(N)Oc2cc(NS(=O)(=O)c3ccccc3)ccc2C1c1ccccc1F (centres unmarked) [11b, N-(2-amino-3-cyano-4-(2-fluorophenyl)-4H-chromen-7-yl) benzenesulfonamide] | Neutral | 256 (≈ 607 µM) | 256 (≈ 607 µM) | 256 (≈ 607 µM) | 256 (≈ 607 µM) | neutral or negative; also recorded: Neutral |  |  | 162 (≈ 384 µM) | 122 to 125 |  |  |  |
| CNC(C)C1CCC(N)C(OC2C(N)CC(N)C(OC3OCC(C)(O)C(NC)C3O)C2O)O1 (centres unmarked) [Gentamicin, reference compound] |  |  | 4 (≈ 8.38 µM) |  | 4 (≈ 8.38 µM) |  |  |  | 182 (≈ 381 µM) |  |  |  | neither Sulfisoxazole nor Gentamicin demonstrated apoptotic effects |
| Cc1noc(NS(=O)(=O)c2ccc(N)cc2)c1C [Sulfisoxazole, reference compound] |  |  | 256 (≈ 958 µM) |  | 256 (≈ 958 µM) |  |  |  | 218 (≈ 816 µM) |  |  |  | neither Sulfisoxazole nor Gentamicin demonstrated apoptotic effects |
